Source: patent US11013719B2, “Sunitinib formulations and methods for use thereof in treatment of glaucoma” (The Johns Hopkins University, priority 2014, dated 2021)

Columns and labels:
[1] = tested on: immunopanned RGCs; assay: Survival of immunopanned primary RGCs in culture; format: cell-based, mice; conditions: for Toxicity in primary RGC culture: nanomolar doses; for Neuroprotective (survival-promoting) activity on primary RGCs in culture: increasing doses, 72 hours in culture
Protocol: All animal use was in accordance with ARVO Statement for the Use of Animals, and all the experimental procedures were performed in compliance with animal protocols approved by the IACUC at Johns Hopkins University. Retinas were isolated from postnatal 0-5 day mice and dissociated with papain. Microglia was immunodepleted with anti-CD11b conjugated Dynabeads. The suspension of retinal cells were immunopanned on plates pre-conjugated with anti-Thy1.2 antibody (Serotec, MCA028) and anti-mouse IgM at room temperature (RT). After washing, RGCs were released from the plate by a cell lifter, counted, and seeded at a density of 10,000 per well in 96-well plates in the media composed of Neurobasal, B27, N2 supplement, L-glutamine, and penicillin/streptomycin. […] Images were taken from portions of each well with Cellomics Kinetscan, and cell survival was quantified and calculated with the algorithms in Cellomics Neuroprofiling package. As indicated, RGC viability was alternatively measured by CellTiter-Glo luminescence (Promega).
For siRNA-based screening, the siRNAs from the Sigma Mission Mouse Kinome library were complexed with NeuroMag (Oz Biosciences) at a final concentration of 20 nM. […] Confirmatory siRNAs were obtained from both Dharmacon and Ambion. […] RGCs were cultured for 48 h, and cell viability was analyzed on a plate reader (ViewLux, Perkin Elmer) using the bioluminescent CellTiterGlo (Promega) assay. Concentration response curves were created using CurveFit (NIH NCATS).

[2] = tested on: optic nerve axons; assay: Rat laser-induced ocular hypertension (glaucoma model); format: in vivo, Wistar rats; conditions: for Neuroprotection in the glaucoma model: intravitreal PLGA microspheres / slow release formulation
Protocol: (§1) 6-week old male Wistar rats were anesthetized with ketamine/xylazine. A partial periotomy was made to expose the sclera. The injection site was approximately 1 mm posterior to the ora serrata, and the injection glass pipet was angled towards the optic disc in order to avoid lens injury. 5 μL (10 μg) of PLGA microspheres were injected with a glass pipet and Hamilton syringe.
Intraocular pressure (IOP) was unilaterally elevated by laser treatment of the trabecular meshwork as previously described^7. Briefly, 6-week old Wistar male rats were anesthetized with ketamine/xylazine. On two consecutive weeks, 40-50 532 nm diode laser spots were applied to the prelimbal region (50 μm diameter, 600 mW power and 0.6 seconds duration). Under anesthesia, the IOP of laser-treated and fellow eyes was measured with TonoLab one and three days after laser treatment. Four weeks following laser treatment, rats were perfused with 4% paraformaldehyde in phosphate buffer. Optic nerves were isolated, postfixed with 1% osmium tetroxide, embedded in epoxy resin and stained with 1% toluidine blue. Images from 10 random and nonoverlapping fields were taken with 100× oil phase contrast objective. The area of entire optic nerve cross-sections were imaged with 10× magnification, and used with axon counts from the 10 field to derive axon counts per nerve. The laser treatment and acquisition of optic nerve images were performed in a masked fashion.

[3] = tested on: RGCs; assay: Rat optic nerve transection after intravitreal microspheres; format: in vivo, Wistar rats
Protocol: as §1
The optic nerve was exposed by a partial peritomy and intraorbital dissection of the extraocular muscles, and then transected with a 25-gauge needle. 4-Di-10-ASP were then applied to the proximal nerve stump. Care was taken to avoid vascular injury during the transection, and retinal perfusion was examined after nerve transection. Two weeks after transection, rats were sacrificed and enucleated. Retinas were flatmounted, imaged with confocal microscopy and the number of 4-Di-10-ASP-labeled cells with RGC morphology was quantified. Imaging and quantification of RGC survival were performed in a masked fashion.

[4] = tested on: DLK; assay: DLK signaling in immunopanned RGCs (Western blot of phospho-MKK7 and phospho-JNK); format: cell-based, mice; conditions: same concentrations that increase RGC survival
Protocol: Western blots were performed according to the standard protocol. The following antibodies were from Cell Signaling Technology: Phospho-JNK, Thr183/Tyr185 (4671); JNK (9258); Phospho-MKK7 (4171), and MKK7 (4172). Monoclonal anti-alpha-tubulin antibody (T6074) was purchased from Sigma. DLK rabbit polyclonal was provided by S. Hirai.
To assess sunitinib's effect on DLK signaling in RGCs, immunopanned cells were cultured in the presence of increasing amounts of sunitinib.

[5] = Solubility of sunitinib in aqueous solution; format: physicochemical
[6] = tested on: kinases; conditions: at neuroprotective concentrations; cited from earlier work
[7] = tested on: RGCs; assay: Whole-cell patch-clamp recordings from RGCs at two weeks in culture
Source text: Recordings were made by using the whole-cell patch-clamp technique in both current- and voltage-clamp modes with an Axopatch 200B. Data were low-pass filtered at 1 kHz (Bessel) and sampled at 10 kHz. […] The recording pipette was filled with the following intracellular solution (in mM): 100 K-gluconate, 50 KCl, 20 HEPES, 10 EGTA, 5 MgCl2, 2 ATP, 0.1 GTP, pH adjusted to 7.33 with KOH. The cells were continuously perfused with (in mM): 140 NaCl, 5 KCl, 1 MgCl2, 2.5 CaCl2), 10 glucose, 10 HEPES, pH 7.4 with NaOH.
To determine whether the RGCs that are kept alive for extended periods with DLK siRNA or sunitinib treatment remain functional, patch-clamp recordings were performed at two weeks in culture.

## COc1cc(N2CCC(N3CCN(C)CC3)CC2)ccc1Nc1ncc(Cl)c(Nc2ccccc2S(=O)(=O)C(C)C)n1 [TAE-684]
[1]
  Toxicity in primary RGC culture: limited by toxicity at nanomolar doses

## C[C@@H](Oc1cc(-c2cnn(C3CCNCC3)c2)cnc1N)c1c(Cl)ccc(F)c1Cl [crizotinib]
[1]
  Neuroprotective (survival-promoting) activity on primary RGCs in culture: promoted the survival of primary RGCs in culture

## Clc1ccc(Nc2nnc(Cc3ccncc3)c3ccccc23)cc1 [vatalanib]
[1]
  Neuroprotective (survival-promoting) activity on primary RGCs in culture: lack neuroprotective activity

## lestautinib
[1]
  Neuroprotective (survival-promoting) activity on primary RGCs in culture: promoted the survival of primary RGCs in culture

## Cc1ccc(NC(=O)c2ccc(CN3CCN(C)CC3)cc2)cc1Nc1nccc(-c2cccnc2)n1 [imatinib]
[1]
  Neuroprotective (survival-promoting) activity on primary RGCs in culture: lack neuroprotective activity

## CCOc1cc2ncc(C#N)c(Nc3ccc(OCc4ccccn4)c(Cl)c3)c2cc1NC(=O)/C=C/CN(C)C [neratinib]
[1]
  Toxicity in primary RGC culture: limited by toxicity at nanomolar doses

## CCN(CC)CCNC(=O)c1c(C)[nH]c(/C=C2\C(=O)Nc3ccc(C(=O)N(C)C)cc32)c1C [SR8165]
[1]
  DLK toxicity: reduced DLK toxicity
  Neuroprotective (survival-promoting) activity on primary RGCs in culture: greater efficacy in vitro
[2]
  Neuroprotection in the glaucoma model: conferred similar neuroprotection

## CNC(=O)c1cc(Oc2ccc(NC(=O)Nc3ccc(Cl)c(C(F)(F)F)c3)cc2)ccn1 [sorafenib]
[1]
  Neuroprotective (survival-promoting) activity on primary RGCs in culture: lack neuroprotective activity

## CCN(CC)CCNC(=O)c1c(C)[nH]c(/C=C2\C(=O)Nc3ccc(F)cc32)c1C [Sunitinib]
[1]
  Neuroprotective (survival-promoting) activity on primary RGCs in culture: dose-dependent increase in the viability of primary RGCs
[3]; intravitreal PLGA microspheres 7 days before transection, two weeks post-transection
  Increase in surviving RGCs compared to control animals: 3-4 fold
[2]; intravitreal drug-eluting microspheres, one month, p<0.05
  Reduction of optic nerve axon loss: 40%
[4]
  Phosphorylation of targets downstream of DLK, including MKK7 and JNK: decrease in the phosphorylation
[5]
  Solubility in aqueous solution: pH dependent
[6]
  Number of kinases inhibited: ~200 kinases
[7]
  Functionality of RGCs kept alive for extended periods: conducted action potentials in response to depolarizing current and were responsive to exogenously applied glutamate

## CN(C)S(=O)(=O)c1ccc2c(c1)/C(=C/c1cc3c([nH]1)CCCC3)C(=O)N2 [SU6656]
[1]
  Neuroprotective (survival-promoting) activity on primary RGCs in culture: neuroprotective

## Cc1cc(Nc2cc(N3CCN(C)CC3)nc(Sc3ccc(NC(=O)C4CC4)cc3)n2)[nH]n1 [Tozasertib, tozasertib]
[1]
  Neuroprotective (survival-promoting) activity on primary RGCs in culture: promoted the survival of primary RGCs in culture
[3]; intravitreal slow release formulation
  Protection of RGCs in the optic nerve transection model: protected RGCs
[2]
  Neuroprotection in the glaucoma model: protected RGCs

## COc1cc2c(Oc3ccc(NC(=O)C4(C(=O)Nc5ccc(F)cc5)CC4)cc3F)ccnc2cc1OCCCN1CCOCC1 [foretinib]
[1]
  Neuroprotective (survival-promoting) activity on primary RGCs in culture: promoted the survival of primary RGCs in culture

## O=C(c1ccc(/C=C/c2n[nH]c3ccccc23)cc1)N1CCNCC1 [KW-2449]
[1]
  Neuroprotective (survival-promoting) activity on primary RGCs in culture: promoted the survival of primary RGCs in culture
